Assay [1] has as its system B16-F10.9 melanoma. Briefly: LEFCT-EC in mice bearing subcutaneous B16-F10.9 melanoma. In kind it is in vivo, C57BL/6 mice. The settings on record: for Tumor size (mean ± standard error): 7 days after treatment. As for the experimental part: Animals: C57BL/6 male mice were obtained from the breeding colony of Tel-Aviv University, Israel. Mice were used at 8-12 weeks of age. Animal care and experimentation was carried out in accordance with Tel-Aviv University guidelines.
Melanoma tumor cell line: The highly metastatic, poorly immunogenic B16-F10.9 (F10.9) subclone of the B16 melanoma cell line was used to generate melanoma tumors in mice (Eisenbach L. et al., 1984. Int J Cancer 34:567). Cells were maintained in DMEM supplemented with 100 U/ml penicillin, 100 μg/ml streptomycin, 4 mM glutamine, 1 mM sodium pyruvate, 1% non-essential amino acids and 10% heat-inactivated fetal calf serum (FCS); and were cultured at 37° C. in a humidified incubator in an atmosphere of 7% carbon dioxide and 93% air.
Tumor generation protocol: F10.9 tumors were induced in C57BL/6 mice by subcutaneous injection of 2×10^5 F10.9 cells. Mice were subjected to experimental treatments once tumors reached 5 mm in diameter (about 60-70 mm^3). Chemotherapeutic drugs: The following chemotherapeutic drugs used were: cis-platinum (II) diamminedichloride (cisplatin; #P-4394, Sigma, Israel), dissolved in PBS for injections; Taxol (Mead Johnson Oncology Products, A Bristol-Myers Squibb, USA), obtained as a sterile nonpyrogenic solution containing 6 mg/ml paclitaxel, 527 mg/ml of purified Cremophor EL (polyoxyethylated castor oil) and 5-FU (Abic, Israel).
Low-strength electric field enhanced cancer therapy protocol: Mice were subjected to a single treatment of LEFCT-EC, once tumors reached 5 mm in diameter (11-17 days following tumor cell inoculation). Volumes of up to 100 μl of chemotherapeutic agents were injected into tumor loci, and exposures to electric fields were carried out 3-4 min following intratumoral injection of chemotherapeutic agents. To expose tumors to electric fields, stainless steel electrode needles (Karlsbader insect pins No 0. BioQuip Products, USA) soldered at their brassy ends with thin isolated copper wires were used. Electrodes were inserted to a depth of about 7 mm percutaneously into and in the immediate vicinity of the tumor; one cathode needle in the center of the tumor and three peripheral anodes, at a distance of about 5 mm from the cathode. The needles were connected to an electric pulse generator (Grass S48 Stimulator, USA). The field strength applied was about 40 V/cm; the repetition frequency, 500 Hz; and the pulse width, 180 μs. All mice were anesthetized prior to LEF treatment.
Statistical analysis: Statistical analysis of survival times (Kaplan-Meir test), survival comparisons between groups (Mantel-Cox test) and tumor volume differences between groups (Kolmogorov-Smirnov test) were performed using StatSoft Statistica statistical software. The 10-15% mortality rate in the 5 days following LEF or LEF-chemotherapy was considered as treatment-caused, therefore such cases of mortality were excluded.
Tumor volume determination: performed as described above in Example 1 of the Examples section.

Assay [2] relates to CT-26 colon carcinoma. Briefly: LEF with chemotherapy (LEFCT-EC) in mice bearing 5 mm CT-26 tumors. In kind it is in vivo, BALB/C mice. The method, then: Mice: BALB/C male mice were obtained from the breeding colony of Tel-Aviv University, Israel. Mice were used at 8-12 weeks of age. Animal care and experimentation were performed in accordance with the Tel-Aviv University guidelines.
Tumor: Colon carcinoma tumors were grown in mice with CT-26, a metastatic colon carcinoma cell line induced in a BALB/c mouse by chemical carcinogenesis. Cells were cultured in Dulbecco's modified Eagle's medium (DMEM) supplemented with 100 U/ml penicillin, 100 μg/ml streptomycin, 2 mM L-glutamine; 1 mM sodium pyruvate; 1% non-essential amino acid solution; 10% heat-inactivated fetal calf serum. Cultures were maintained at 37° C. in a humidified incubator with a 5% CO2 atmosphere.
Tumor cell inoculation: Mice were inoculated intracutaneously with 10^5 CT-26 cells suspended in 100 μL PBS into the low lateral side of the back. Local tumor growth was determined by measuring three mutually orthogonal tumor diameters with a caliper. The volume of tumor was calculated using the formula: Vol=D1×D2×D3×π/6, where D1, D2, D3 are three mutually orthogonal tumor diameters.
(§1) Low-strength electric field stimulation: To subject tumors to LEFs, stainless steel needles were used as electrodes. Tumors 5 mm in diameter (about 65 mm^3) were transfixed by electrode needles, with one cathode in the center of the tumor and three or four peripheral anodes. The electrodes were connected to an electric pulse generator and to an oscilloscope. Pulsed LEFs with a repetition frequency of 500 Hz and a pulse width of 180 μs were applied at 20, 40, 60 and 70 V/cm for a duration 12 min or 20 min. The electric pulses were administered 2-4 min following chemotherapeutic drug administration. Mice were anesthetized 10 min before the procedure.
(§2) Chemotherapeutic agents: Bleomycin (Sigma Israel Chemicals Ltd., Israel; Megapharm Ltd., Israel) was kept at a temperature of 2-8° C., and was dissolved in pyrogen-free PBS to a concentration enabling dosages of 50 U/kg body weight prior to use. BCNU was administered at a dosage of 35 mg/kg body weight, and 5-FU (Abic, Israel) was used at a dose of 100 mg/kg body weight.
Anesthesia: Mice were anesthetized using an anesthetic cocktail comprising a dose of imalgen at 100 mg/kg body weight and xylazine hydrochloride at 6.25 mg/kg body weight dissolved in PBS injected intraperitoneally in a volume of 0.25 ml per mouse 10 min prior to LEF treatment.
Statistical analysis: Survival times (Kaplan-Meir test), survival comparisons between groups (Mantel-Cox test), and tumor volume differences between groups were plotted using StatSoft “Statistica” statistical software.
Effect of LEF duration and strength on potentiation of bleomycin for treatment of colon carcinoma: In order to determine the optimal LEFCT-EC/bleomycin therapy for treatment of colon cancer, mice bearing CT-26 tumors were treated with LEFs of 40 V/cm for 12 min, and 20 V/cm for 12 or 20 min with or without administration of bleomycin, and survival was analyzed.

For assay [3], the system named is CT-26 colon carcinoma. Briefly: CT-26 cells inoculated with splenocytes from mice cured by LEFCT-EC with BCNU. In kind it is in vivo, BALB/C mice. The following applies: donors cured by LEFCT-EC with BCNU; tumor cells to splenocytes 1:100. From the text: Anti-tumor effect of splenocytes from tumor bearing mice cured by LEFCT-EC with BCNU: In order to examine whether development of resistance against challenge with CT-26 tumors in mice cured of such tumors via LEFCT-EC with BCNU is immunologically mediated, normal mice were inoculated with a dose of CT-26 tumor cells mixed with splenocytes from cured animals. […] Thus, curative LEFCT-EC+BCNU treatment of CT-26 tumor bearing mice induces immunological resistance to subsequent growth of such tumors in such mice.

In assay [4] the test system is CT-26 colon carcinoma. Briefly: LEFCT-EC with BCNU in mice bearing large (10 or 15 mm) CT-26 tumors. In kind it is in vivo, BALB/C mice. The following applies: for time after which all mice were dead: BCNU 35 mg/kg only; for cure rate: LEF 40 V/cm 12 min + BCNU 35 mg/kg. As for the experimental part: as §1, §2
Effect of LEFCT-EC with BCNU on CT-26 development in mice bearing large tumors: In order to examine the effectiveness of LEFCT-EC with BCNU on tumor development in mice with a large tumor burden, mice bearing tumors of 10 mm (about 523 mm^3) or 15 mm in diameter (about 1,760 mm^3). These animals were treated with 4 electrodes placed 7 mm apart.

Assay [5] has as its system CT-26 colon carcinoma.
The subject of assay [6] is B16-F10.9 melanoma. Briefly: Rechallenge with B16-F10.9 cells of mice cured by LEFCT-EC. In kind it is in vivo, C57BL/6 mice. The following applies: mice cured by LEFCT-EC with the drug, challenged with 2×10^5 B16-F10.9 cells. The source says: FIG. 17 is a data plot depicting the cumulative survival of mice previously bearing B16-F10.9 melanoma and cured by LEFCT-EC with cisplatin or taxol following challenge with B16-F10.9 melanoma cells. Mice cured by LEF-chemotherapy that survived for 120-180 days after initial tumor inoculation, were challenged with 2×10^5 B16-F10.9 cells subcutaneously.
Effect of curative LEFCT-EC treatment on generation of anti B16-F10.9 tumor resistance: The resistance of mice cured of B16-F10.9 melanoma by LEF-chemotherapy was analyzed by challenging such cured mice with a tumorigenic dose of B16-F 10.9 melanoma cells.

Setting [7] is: LEF-CT (drug + LEF), cisplatin 4 mg/kg, bleomycin 8 U/kg, 5-FU 150 mg/kg, taxol 20 mg/kg.
[8] abbreviates: intratumoral drug injection alone, same doses.
Setting [9] is: chemotherapy alone, intratumoral, no LEF.

Turning to `O=c1[nH]cc(F)c(=O)[nH]1` [5-FU, 5-fluorouracil], the “Tumor size (mean ± standard error)” value in the assay on B16-F10.9 melanoma [1] (setting [7]) is reported as 143 ± 52 mm^3; in the assay on B16-F10.9 melanoma [1] (setting [8]), 460 ± 54 mm^3. Besides, the “time at which half of the mice were still alive” value in the assay on CT-26 colon carcinoma [2] (5-FU 100 mg/kg intratumoral or intravenous + LEF 40 V/cm 12 min) turned out to be 80 days.

As for `O=NN(CCCl)C(=O)NCCCl` [BCNU], in the assay with CT-26 colon carcinoma [3], the “tumor growth with splenocytes from cured mice” value was “completely prevent growth of tumors”. In the assay on CT-26 colon carcinoma [4] (10 mm tumors), the “tumor size with LEFCT-EC + BCNU relative to BCNU alone” value was “approximately an order of magnitude smaller”. The “time after which all mice were dead” value in the assay on CT-26 colon carcinoma [4] (10 mm tumors) is reported as 90 days; in the assay with CT-26 colon carcinoma [4] (15 mm tumors) it was 87 days. The cure rate result in the assay on CT-26 colon carcinoma [4] (10 mm tumors) is “over 80%”; with CT-26 colon carcinoma [4] (15 mm tumors) it was 100%; with CT-26 colon carcinoma [2] (LEFCT-EC: drug + LEF 40 V/cm 12 min, 5 mm tumors), 83%. Moreover, the survival with CT-26 colon carcinoma [4] (LEF with BCNU, 15 mm tumors, after 100 days) is 100%; in the assay with CT-26 colon carcinoma [2] (BCNU + LEF 40 V/cm, comparison with surgery, after about 60 days until about 120 days), 40%. In addition, the tumor detection result with CT-26 colon carcinoma [4] (LEFCT-EC with BCNU, 15 mm tumors, after 42 days) is “no tumors were detected”. The “tumor volume of reinoculated mice relative to first-time inoculated mice” value in the assay on CT-26 colon carcinoma [5] (after 18 days) is recorded as “about one order of magnitude smaller”. Moreover, the “day by which half of the cured and challenged mice were still alive” value with CT-26 colon carcinoma [5] (mice cured by LEFCT-EC with BCNU, challenged with 10^5 CT-26 cells) is roughly 63 days. In addition, in the assay with CT-26 colon carcinoma [2] (BCNU 35 mg/kg intratumoral + LEF 40 V/cm 12 min, after 52 days, unchanged until day 110), the survival rate is recorded as 83%. Further, the “tumor size with drug only relative to drug + LEF” value with CT-26 colon carcinoma [2] (after 21 days) is listed as “about triple the size”. The “time after which half the mice died” value with CT-26 colon carcinoma [2] (drug alone, no LEF, intratumoral injection (5-FU intratumoral or intravenous), 5 mm tumors) is “about 48 days”.

Turning to `N.N.[Cl-].[Cl-].[Pt+2]` [cisplatin, cis-platinum (II) diamminedichloride], in the assay with B16-F10.9 melanoma [6], the “MST of challenged mice” value came to 48.7 days. For the same compound, the results for the “Tumor size (mean ± standard error)” value in the assay on B16-F10.9 melanoma [1] (setting [7]) and in the assay with B16-F10.9 melanoma [1] (setting [8]) were 83 ± 57 mm^3 and 1684 ± 204 mm^3, respectively. Further, the “mean survival time (MST)” value is given as 51.1 days in the assay with B16-F10.9 melanoma [1] (LEF-chemotherapy: intratumoral drug + LEF about 40 V/cm 12 min, 120 days (cisplatin) or 180 days (taxol, bleomycin) after inoculation) and 29.5 days in the assay with B16-F10.9 melanoma [1] (setting [9]). Also, the animals tumor free with B16-F10.9 melanoma [1] (LEF-chemotherapy, 120 days after tumor inoculation) was found to be 13.5%. Also, the “effect of drug alone on survival” value with B16-F10.9 melanoma [1] (setting [9]) is listed as “no significant effect”. Further, in the assay with B16-F10.9 melanoma [1] (pooled statement for cisplatin, taxol or bleomycin), the “LEFCT-EC treated mice that died two months and later after treatment with pulmonary metastatic foci, free of primary tumor” value was “About 10%”.

For the origin of these results see patent publication US7395112B2, “Method and apparatus for treating tumors using low strength electric fields” (priority 2002, dated 2008).
